Results reported in patent publication US4111945A, “Process for the preparation of 3,4,5-trimethoxy-phenyl-(1,4-dimethyl-1,2,3,6-tetrahydro-2-pyridyl)-carb inol” (Laboratories Made, S.A., priority 1976, dated 1978).

Legend:
Assay type in all cases: in vivo
[1] = tested on: Swiss ICR mice; test: Acute toxicity, intraperitoneal (Litchfield-Wilcoxon); details: Swiss ICR mice of both sexes, 25 ± 2 g
Protocol: (§1) Acute toxicity studies were made in Swiss ICR mice of both sexes weighing 25 ± 2 g. The products were administered intraperitoneally. Acute toxicity calculations were made by the Litchfield-Wilcoxon method.

[2] = tested on: Swiss ICR albino mice; test: Thermal analgesia, hot-plate technique at 55° C.; details: for Jumping time (mean ± S.E.M.): 30 mg/kg, intraperitoneal, 30 minutes, hot-plate 55° C., control 50.1 ± 3.16
Protocol: The thermal analgesia effect was studied in Swiss ICR albino mice. The hot-plate technique at 55° C. was used. The […] were divided into batches of 10.
The products being studied were administered intraperitoneally and after 30 minutes the animals were placed on the hot-plate, the time in seconds being counted until the animals started to jump. Batches of control animals which had received injections of distilled water only were used.

[3] = Acute toxicity, intraperitoneal (Litchfield-Wilcoxon); details: mouse, in vivo, ip, Swiss ICR mice of both sexes, 25 ± 2 g, read-out: Lethal Dose 50 (LD50)
Protocol: as §1

[4] = tested on: Swiss ICR albino mice; test: Chemical analgesia, acetic acid writhing technique
Protocol: The analgesic effect was studied in Swiss ICR albino mice using the acetic acid writhing technique. The animals were divided into batches of 10.
The products studied were administered intraperitoneally and after 30 minutes 0.25 ml of 1% acetic acid was injected intraperitoneally. A batch of control animals was given only the acetic acid. The number of writhings made by each mouse in the 20 minutes after the administration of the acetic acid was counted.

Q: With CCC(=O)O[C@](Cc1ccccc1)(c1ccccc1)[C@H](C)CN(C)C [Dextropropoxyphene, dextropropoxyphene, reference compound] as the compound, how does the “Lethal Dose 50 (LD50)” value [1] read?
A: 140 mg/kg

Q: What about the “Jumping time (mean ± S.E.M.)” value [2] of the same compound?
A: 91 ± 17.17 s

Q: Which LD50 [3] does the source give for COc1cc(C(O)C2CC(C)=CCN2C)cc(OC)c1OC (stereo not shown) [Product VIII, 3,4,5-trimethoxyphenyl-(1,4-dimethyl-1,2,3,6-tetrahydro-2-pyridyl)-carbinol] here?
A: 201 mg/kg

Q: What about the “No. of writhings (mean ± S.E.M.)” value ([4]; 30 mg./kg., intraperitoneal, 30 minutes before acetic acid, counted over 20 minutes, control 93) of the same compound?
A: 58.8 ± 10.2

Q: And the chemical analgesic activity ([4]; conclusion in words, compared with dextropropoxyphene)?
A: same intensity as dextropropoxyphene

Q: What about the “Jumping time (mean ± S.E.M.)” value [2] of the same compound?
A: 51.8 ± 5.46 s

Q: What about the thermal analgesic activity ([2]; conclusion in words) of the same compound?
A: lacks thermal analgesic activity
